Data published in PMC12396409, “Screening and hit evaluation of a microbial metabolite library against the pathogenic Plasmodium falciparum and Toxoplasma gondii parasites” (International Journal for Parasitology: Drugs and Drug …, 2025).
Where two headings read alike, the source gives them in different places.

Columns and labels:
[1] = system: P. falciparum 3D7 parasites; experiment: P. falciparum growth inhibition assay, 2-cycle (120 h treatment), delayed-death screen and dose-response; type: cell-based, Plasmodium falciparum; conditions: for activity at 2 µg/mL: Plasmodium falciparum
[2] = system: P. falciparum 3D7 parasites; experiment: P. falciparum growth inhibition assay, 1-cycle (72 h treatment), SYBR DNA staining (library screen at 2 μg/mL and dose-response); type: cell-based, Plasmodium falciparum; conditions: for activity at 2 µg/mL: Plasmodium falciparum
[3] = system: T. gondii RH strain (RH-Tub-eYFP) tachyzoites; experiment: microbe, parasite or virus in culture; type: cell-based, Toxoplasma gondii; conditions: 72 h; for percent parasite growth at 2 µg/mL: Toxoplasma gondii
[4] = P. falciparum, 120 h, screen at 2 μg/mL, replicate 1
[5] = P. falciparum, 120 h, screen at 2 μg/mL, replicate 2
[6] = 3D7, 72 h treatment, mean ± S.D., n ≥ 3, read-out: IC50 (μM), P. falciparum
[7] = P. falciparum, 72 h, screen at 2 μg/mL, replicate 1
[8] = P. falciparum, 72 h, screen at 2 μg/mL, replicate 2
[9] = T. gondii, screen at 2 μg/mL, replicate 1
[10] = T. gondii, screen at 2 μg/mL, replicate 2
[11] = library screen at 2 μg/mL, % growth, replicate 1, read-out: Tg_72h_%Growth_Rep1
[12] = library screen at 2 μg/mL, % growth, replicate 2, read-out: Tg_72h_%Growth_Rep2
[13] = library screen at 2 μg/mL, 120 h, % growth, replicate 1
[14] = library screen at 2 μg/mL, 120 h, % growth, replicate 2
[15] = library screen at 2 μg/mL, 72 h, % growth, replicate 1
[16] = library screen at 2 μg/mL, 72 h, % growth, replicate 2
[17] = library screen at 2 μg/mL, % growth, replicate 1
[18] = library screen at 2 μg/mL, % growth, replicate 2

Molecule | Pf_120h_%Growth_Rep1 [1, 4] | Pf_120h_%Growth_Rep2 [1, 5] | Pf_72h_%Growth_Rep1 [2, 7] | Pf_72h_%Growth_Rep2 [2, 8] | Tg_72h_%Growth_Rep1 [3, 9] | Tg_72h_%Growth_Rep2 [3, 10] | Pf_120h_%Growth_Rep1 [1, 13] | Pf_120h_%Growth_Rep2 [1, 14] | Pf_72h_%Growth_Rep1 [2, 15] | Pf_72h_%Growth_Rep2 [2, 16] | Tg_72h_%Growth_Rep1 [3, 17] | Tg_72h_%Growth_Rep2 [3, 18] | further results
COc1cc(O)c2c(c1)C=CCC(O)C(O)C(=O)C=CCC(C)OC2=O (stereo not drawn) [BIA-L1160] |  |  |  |  |  |  |  |  |  |  |  |  | Pf_120h_%Growth_Rep1 ([1]; P. falciparum 3D7, 120 h, library screen at 2 μg/mL, % growth, replicate 1): 96.72%; Pf_120h_%Growth_Rep2 ([1]; P. falciparum 3D7, 120 h, library screen at 2 μg/mL, % growth, replicate 2): 110.83%; Pf_72h_%Growth_Rep1 ([2]; P. falciparum 3D7, 72 h, library screen at 2 μg/mL, % growth, replicate 1): 82.21%; Pf_72h_%Growth_Rep2 ([2]; P. falciparum 3D7, 72 h, library screen at 2 μg/mL, % growth, replicate 2): 92.24%; Tg_72h_%Growth_Rep1 ([3]; T. gondii RH, library screen at 2 μg/mL, % growth, replicate 1): 102.73%; Tg_72h_%Growth_Rep2 ([3]; T. gondii RH, library screen at 2 μg/mL, % growth, replicate 2): 85.36%
Cc1cc(O)c(C)c(O)c1C(=O)Oc1c(C)c(C)c(C(=O)Oc2c(C)c(C)c(C(=O)O)c(O)c2C)c(O)c1C [Thielavin A] | 119.92% | 51.57% | 46.40% | 70.42% | 89.38% | 91.04% |  |  |  |  |  |  | IC50 [2, 6]: > 1 µM
C[C@H]1C(=O)N2c3ccccc3[C@@]3(O)C[C@@H](n4cnc5ccccc5c4=O)C(=O)N1[C@@H]23 [Chaetominine] | 101.17% | 95.94% | 81.47% | 84.79% | 140.61% | 97.41% |  |  |  |  |  |  | 
CO[C@H]1C[C@@H]2CC[C@@H](C)[C@@](O)(O2)C(=O)C(=O)N2CCCC[C@H]2C(=O)O[C@H]([C@H](C)C[C@@H]2CC[C@@H](OCCO)[C@H](OC)C2)CC(=O)[C@H](C)/C=C(\C)[C@@H](O)[C@@H](OC)C(=O)[C@H](C)C[C@H](C)/C=C/C=C/C=C/1C [Everolimus] |  |  |  |  |  |  |  |  |  |  |  |  | activity at 2 µg/mL ([1]; 3D7, library screen at 2 μg/mL, 120 h, % growth, replicate 1, read-out: Pf_120h_%Growth_Rep1): 72.3%; activity at 2 µg/mL ([1]; 3D7, library screen at 2 μg/mL, 120 h, % growth, replicate 2, read-out: Pf_120h_%Growth_Rep2): 69.3%; activity at 2 µg/mL ([2]; 3D7, library screen at 2 μg/mL, 72 h, % growth, replicate 1, read-out: Pf_72h_%Growth_Rep1): 71.5%; activity at 2 µg/mL ([2]; 3D7, library screen at 2 μg/mL, 72 h, % growth, replicate 2, read-out: Pf_72h_%Growth_Rep2): 67.8%; percent parasite growth at 2 µg/mL [3, 11]: 40.6%; percent parasite growth at 2 µg/mL [3, 12]: 79.1%
CCCCc1ccc(C(=O)O)nc1 [Fusaric acid] |  |  |  |  |  |  |  |  |  |  |  |  | activity at 2 µg/mL ([1]; 3D7, 120 h, library screen at 2 μg/mL, 120 h, % growth, replicate 1, read-out: Pf_120h_%Growth_Rep1): 80.2%; activity at 2 µg/mL ([1]; 3D7, 120 h, library screen at 2 μg/mL, 120 h, % growth, replicate 2, read-out: Pf_120h_%Growth_Rep2): 85%; activity at 2 µg/mL ([2]; 3D7, 72 h, library screen at 2 μg/mL, 72 h, % growth, replicate 1, read-out: Pf_72h_%Growth_Rep1): 78%; activity at 2 µg/mL ([2]; 3D7, 72 h, library screen at 2 μg/mL, 72 h, % growth, replicate 2, read-out: Pf_72h_%Growth_Rep2): 31.2%; percent parasite growth at 2 µg/mL [3, 11]: 118%; percent parasite growth at 2 µg/mL [3, 12]: 83.8%
C[C@H]1CCC[C@H](O)CCCCCc2cc(O)cc(O)c2C(=O)O1 [Zearalanol, alpha-] | 88.76% | 84.84% | 80.84% | 78.13% | 162.37% | 92.02% |  |  |  |  |  |  | 
O=c1c(-c2ccc(O)cc2)coc2cc(O)ccc12 [Daidzein] |  |  |  |  |  |  |  |  |  |  |  |  | activity at 2 µg/mL ([1]; 3D7, P. falciparum, 120 h, screen at 2 μg/mL, replicate 1, read-out: Pf_120h_%Growth_Rep1): 103%; activity at 2 µg/mL ([1]; 3D7, P. falciparum, 120 h, screen at 2 μg/mL, replicate 2, read-out: Pf_120h_%Growth_Rep2): 95.5%; activity at 2 µg/mL ([2]; 3D7, P. falciparum, 72 h, screen at 2 μg/mL, replicate 1, read-out: Pf_72h_%Growth_Rep1): 83.8%; activity at 2 µg/mL ([2]; 3D7, P. falciparum, 72 h, screen at 2 μg/mL, replicate 2, read-out: Pf_72h_%Growth_Rep2): 88.8%; percent parasite growth at 2 µg/mL ([3]; T. gondii, screen at 2 μg/mL, replicate 1, read-out: Tg_72h_%Growth_Rep1): 125%; percent parasite growth at 2 µg/mL ([3]; T. gondii, screen at 2 μg/mL, replicate 2, read-out: Tg_72h_%Growth_Rep2): 97%
CN1C(=O)c2ccccc2NC(=O)/C1=C/c1ccccc1 [Dehydrocyclopeptine] | 82.86% | 97.23% | 83.17% | 27.60% | 109.69% | 83.37% |  |  |  |  |  |  | 
Cc1cc(=O)c2c(o1)-c1c(cc(O)c(O)c1C(=O)O)OC2 [Citromycetin] | 103.91% | 96.05% | 89.81% | 87.50% | 134.75% | 97.97% |  |  |  |  |  |  | 
COc1ccc(C[C@H]2NC[C@H](O)[C@H]2OC(C)=O)cc1 [Anisomycin] |  |  |  |  |  |  | 9.82% | -15.33% | 2.13% | 2.45% | 0.93% | 1.73% | 
CCCCCCCCCCCC[C@@H](C(=O)O)[C@H](C)C(=O)O [Roccellic acid] |  |  |  |  |  |  |  |  |  |  |  |  | Pf_120h_%Growth_Rep1 ([1]; P. falciparum, 120 h, parasite screen 2 μg/mL, % growth, replicate 1): 69.96%; Pf_120h_%Growth_Rep2 ([1]; P. falciparum, 120 h, parasite screen 2 μg/mL, % growth, replicate 2): 129.33%; Pf_72h_%Growth_Rep1 ([2]; P. falciparum, 72 h, parasite screen 2 μg/mL, % growth, replicate 1): 81.49%; Pf_72h_%Growth_Rep2 ([2]; P. falciparum, 72 h, parasite screen 2 μg/mL, % growth, replicate 2): 118.80%; Tg_72h_%Growth_Rep1 ([3]; T. gondii, parasite screen 2 μg/mL, % growth, replicate 1): 114.12%; Tg_72h_%Growth_Rep2 ([3]; T. gondii, parasite screen 2 μg/mL, % growth, replicate 2): 89.45%
COc1cc(/C=C/C(=O)O)ccc1O [Ferulic acid] |  |  |  |  |  |  | 78.07% | 101.86% | 82.96% | 102.51% | 101.17% | 94.55% | 
CC(C)=CCc1cc(C=C2OC(=O)C(c3cc(CC=C(C)C)c(O)cc3O)=C2O)ccc1O [Aspulvinone O] |  |  |  |  |  |  | 144.60% | 98.61% | 82.88% | 86.74% | 90.15% | 99.19% | 
CSC[S@+]([O-])C[C@H](CO)NC(=O)/C=C/c1c(C)[nH]c(=O)[nH]c1=O [Sparsomycin] |  |  |  |  |  |  |  |  |  |  |  |  | activity at 2 µg/mL ([1]; 3D7, 120 h, P. falciparum, 120 h, parasite screen 2 μg/mL, % growth, replicate 1, read-out: Pf_120h_%Growth_Rep1): 10.1%; activity at 2 µg/mL ([1]; 3D7, 120 h, P. falciparum, 120 h, parasite screen 2 μg/mL, % growth, replicate 2, read-out: Pf_120h_%Growth_Rep2): -13.2%; activity at 2 µg/mL ([2]; 3D7, 72 h, P. falciparum, 72 h, parasite screen 2 μg/mL, % growth, replicate 1, read-out: Pf_72h_%Growth_Rep1): 4.3%; activity at 2 µg/mL ([2]; 3D7, 72 h, P. falciparum, 72 h, parasite screen 2 μg/mL, % growth, replicate 2, read-out: Pf_72h_%Growth_Rep2): -1%; percent parasite growth at 2 µg/mL ([3]; T. gondii, parasite screen 2 μg/mL, % growth, replicate 1, read-out: Tg_72h_%Growth_Rep1): 2.81%; percent parasite growth at 2 µg/mL ([3]; T. gondii, parasite screen 2 μg/mL, % growth, replicate 2, read-out: Tg_72h_%Growth_Rep2): 27.9%
O=C(/C=C/C=C/C=C/C1CCCCC1)NC1=C[C@@](O)(/C=C/C=C/C=C/C(=O)NC2=C(O)CCC2=O)[C@@H]2O[C@@H]2C1=O [Asukamycin] |  |  |  |  |  |  | 67.03% | 82.56% | 79.58% | 78.85% | 161.41% | 93.58% | 
C/C=C(\NC(=O)c1csc(-c2csc(-c3ccc4c(n3)-c3csc(n3)[C@H]([C@@H](C)O)NC(=O)c3csc(n3)[C@H](C(C)(C)O)NC(=O)c3csc(n3)/C(=C/C)NC(=O)[C@H]([C@@H](C)O)NC(=O)c3csc-4n3)n2)n1)C(=O)NC[C@@H](C)O [Thiocillin I] | 9.85% | 7.39% | 5.41% | -2.25% | 86.81% | 86.09% |  |  |  |  |  |  | IC50 [2, 6]: 0.08 ± 0.008 µM; IC50 ([2]; 72 h treatment, read-out: IC50, P. falciparum): < 0.2 µM
Amphomycin |  |  |  |  |  |  | 117.00% | 80.15% | 83.34% | 87.67% | 94.79% | 89.38% | 
COc1ccc(-c2coc3cc(O)cc(O)c3c2=O)cc1 [Biochanin A] |  |  |  |  |  |  | 158.83% | 100.13% | 105.15% | 90.67% | 75.87% | 92.06% | 
